ChEMBL document CHEMBL1201862, “PubChem BioAssay data set” (2004)
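Each compound was tested at five concentrations against cells in 96-well plates for 48 hours. Abbreviation: GI50, concentration required for 50% inhibition of growth.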 Calls of active or inactive are those of the source. No stated cut-off is given here; in the data, active = GI50 up to about 1.1 µM and inactive = higher.

Experiments:
Assay in all cases: NCI tumour cell line growth inhibition, 48 h
BT-549 = test system: BT-549
CAKI-1 = test system: CAKI-1
HCT-15 = test system: HCT-15
HT-29 = test system: HT-29
KM12 = test system: KM12
M14 = test system: M14
NCI-H226 = test system: NCI-H226
NCI-H23 = test system: NCI-H23
NCI-H460 = test system: NCI-H460
NCI/ADR-RES = test system: NCI/ADR-RES
RPMI-8226 = test system: RPMI-8226
RXF 393 = test system: RXF 393
SF-539 = test system: SF-539
SK-OV-3 = test system: SK-OV-3
SN12C = test system: SN12C
SNB-75 = test system: SNB-75
TK-10 = test system: TK-10
U-251 = test system: U-251
UACC-62 = test system: UACC-62
UO-31 = test system: UO-31

| SMILES | GI50 (BT-549) | GI50 (CAKI-1) | GI50 (HCT-15) [µM] | GI50 (HT-29) | GI50 (KM12) | GI50 (M14) | GI50 (NCI-H226) | GI50 (NCI-H23) | GI50 (NCI-H460) | GI50 (NCI/ADR-RES) | GI50 (RPMI-8226) | GI50 (RXF 393) | GI50 (SF-539) | GI50 (SK-OV-3) | GI50 (SN12C) | GI50 (SNB-75) | GI50 (TK-10) | GI50 (U-251) | GI50 (UACC-62) | GI50 (UO-31) |
| --- | --- | --- | --- | --- | --- | --- | --- | --- | --- | --- | --- | --- | --- | --- | --- | --- | --- | --- | --- | --- |
| Cc1c(C(=O)c2ccc(N)c3ccccc23)c2ccccc2n1CCN1CCOCC1 | 27.4 µM (inactive) | 7.85 µM (inactive) | 21 | 22.4 µM (inactive) | 3.38 µM (inactive) | 24.5 µM (inactive) | 32.1 µM (inactive) | 29.7 µM (inactive) | 3.4 µM (inactive) | 23.4 µM (inactive) | 23.6 µM (inactive) | 24.2 µM (inactive) | 19.7 µM (inactive) | 1.97 µM (inactive) | 33.8 µM (inactive) | 2.62 µM (inactive) | 31 µM (inactive) | 2.77 µM (inactive) | 16.4 µM (inactive) | 25.5 µM (inactive) |
| COc1cnnc2c(C)c(-c3ccccc3)nn12 | > 100 µM (inactive) | 57 µM (inactive) | > 100 | > 100 µM (inactive) | > 75.2 µM (inactive) | > 68.4 µM (inactive) | > 100 µM (inactive) | > 100 µM (inactive) | 66.1 µM (inactive) | > 100 µM (inactive) | 56.5 µM (inactive) | 0.436 µM (active) | > 100 µM (inactive) | 47.6 µM (inactive) | 30.1 µM (inactive) | 20 µM (inactive) | > 100 µM (inactive) | > 70.3 µM (inactive) | 42.4 µM (inactive) | 32.5 µM (inactive) |
| COc1ccccc1C(=O)N(Cc1ccccc1)c1ccc(Cl)c(C(=O)OC(C)C)c1 | 34.4 µM (inactive) | 12.3 µM (inactive) | 19.8 | 16.6 µM (inactive) | 21.2 µM (inactive) | 20.7 µM (inactive) | 13.6 µM (inactive) | 20.6 µM (inactive) | 21.4 µM (inactive) | 20.2 µM (inactive) | 5.69 µM (inactive) | 11.8 µM (inactive) | 30.6 µM (inactive) | 25.4 µM (inactive) | 27.6 µM (inactive) | 19.7 µM (inactive) | 26.8 µM (inactive) | 36.6 µM (inactive) | 19.8 µM (inactive) | 7.71 µM (inactive) |
| COc1c(N2CCCCC2)c2c(=O)c3ccccc3oc2c2c3ccccc3n(C)c12 | 98.6 µM (inactive) | > 100 µM (inactive) | > 100 | 42.4 µM (inactive) | > 100 µM (inactive) | > 100 µM (inactive) | > 100 µM (inactive) | > 100 µM (inactive) | > 100 µM (inactive) | > 100 µM (inactive) | 47.1 µM (inactive) | 94.6 µM (inactive) | > 100 µM (inactive) | > 100 µM (inactive) | 47.6 µM (inactive) | > 100 µM (inactive) | > 100 µM (inactive) | > 100 µM (inactive) | > 100 µM (inactive) | > 100 µM (inactive) |
| CC(C)(C)OC(=O)NC(CS(=O)(=O)O)C(=O)O (stereo not given) | > 100 µM (inactive) | > 100 µM (inactive) | > 100 | > 100 µM (inactive) | > 100 µM (inactive) | > 100 µM (inactive) | > 100 µM (inactive) | > 100 µM (inactive) | > 100 µM (inactive) | > 100 µM (inactive) | > 100 µM (inactive) | > 100 µM (inactive) | > 100 µM (inactive) | > 100 µM (inactive) | > 100 µM (inactive) | > 100 µM (inactive) | > 100 µM (inactive) | > 100 µM (inactive) | > 100 µM (inactive) | > 100 µM (inactive) |
